Experimental data reported in ChEMBL document CHEMBL1201862, “PubChem BioAssay data set” (2004).
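96-well plates; 48 h exposure; 5 concentrations. Endpoints by linear interpolation between flanking doses. Not reached: highest tested concentration assigned. GI50 = concentration required for 50% inhibition of growth.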 The source made the active and inactive calls. No stated cut-off is given here; in the data, active = GI50 up to about 1.1 µM and inactive = higher.

Assays:
Assay in all cases: NCI-60 cell line screen, 48 h
M14 = test system: M14
SF-295 = test system: SF-295
HOP-18 = test system: HOP-18
SN12C = test system: SN12C
HOP-62 = test system: HOP-62
NCI-H460 = test system: NCI-H460
M19-MEL = test system: M19-MEL
HL-60 = test system: HL-60
CCRF-CEM = test system: CCRF-CEM
MOLT-4 = test system: MOLT-4
HT-29 = test system: HT-29
KM-20L2 = test system: KM-20L2
IGROV-1 = test system: IGROV-1
EKVX = test system: EKVX
UACC-257 = test system: UACC-257
U-251 = test system: U-251
OVCAR-8 = test system: OVCAR-8
DLD-1 = test system: DLD-1
DMS-114 = test system: DMS-114
OVCAR-4 = test system: OVCAR-4
SF-268 = test system: SF-268
HOP-92 = test system: HOP-92
A549 = test system: A549
SNB-19 = test system: SNB-19
SK-MEL-5 = test system: SK-MEL-5
KM12 = test system: KM12
SK-MEL-28 = test system: SK-MEL-28
LXFL 529 = test system: LXFL 529
NCI-H23 = test system: NCI-H23
TK-10 = test system: TK-10
OVCAR-5 = test system: OVCAR-5
Malme-3M = test system: Malme-3M
UACC-62 = test system: UACC-62
SNB-75 = test system: SNB-75
SW-620 = test system: SW-620
HCT-116 = test system: HCT-116
HCC 2998 = test system: HCC 2998
OVCAR-3 = test system: OVCAR-3
ACHN = test system: ACHN
SK-MEL-2 = test system: SK-MEL-2
UO-31 = test system: UO-31
XF498 = test system: XF498
NCI-H226 = test system: NCI-H226
LOX IMVI = test system: LOX IMVI
SNB-78 = test system: SNB-78
RPMI-8226 = test system: RPMI-8226
RXF 393 = test system: RXF 393
786-0 = test system: 786-0
COLO 205 = test system: COLO 205

Measured: GI50

O=C(CCC/C(CC(=O)c1ccc(Br)cc1)=N\O)Nc1ccccc1
inactive: M14 > 100 µM | SF-295 > 100 µM | HOP-18 > 100 µM | SN12C > 100 µM | HOP-62 > 100 µM | NCI-H460 > 100 µM | M19-MEL > 100 µM | HL-60 65.2 µM | CCRF-CEM 70.3 µM | MOLT-4 24.5 µM | HT-29 57.4 µM | KM-20L2 91.4 µM | IGROV-1 57.3 µM | EKVX > 100 µM | UACC-257 67.9 µM | U-251 > 100 µM | OVCAR-8 > 100 µM | DLD-1 96.4 µM | DMS-114 25.5 µM | OVCAR-4 76.9 µM | SF-268 > 100 µM | HOP-92 73.3 µM | A549 > 100 µM | SNB-19 > 100 µM | SK-MEL-5 43.3 µM | KM12 > 100 µM | SK-MEL-28 > 100 µM | LXFL 529 > 100 µM | NCI-H23 > 100 µM | TK-10 > 100 µM | OVCAR-5 28.2 µM | Malme-3M > 100 µM | UACC-62 46 µM | SNB-75 > 100 µM | SW-620 > 100 µM | HCT-116 > 100 µM | HCC 2998 > 100 µM | OVCAR-3 > 100 µM | ACHN 96.6 µM | SK-MEL-2 > 100 µM | UO-31 > 100 µM | XF498 > 100 µM | NCI-H226 > 100 µM | LOX IMVI > 100 µM | SNB-78 > 100 µM | RPMI-8226 10.7 µM | RXF 393 45.9 µM | 786-0 > 100 µM | COLO 205 > 100 µM
